Reference: the NIST ThermoML archive (doi:10.1021/acs.jced.5b00813)
± gives the expanded uncertainty stated by the source.

Assays:
[1] = xn = mol fraction of the nth substance listed; details: 298.15 K, 100 kPa, Liquid, Vibrating tube method
[2] = excess molar enthalpy (molar enthalpy of mixing); xn = mol fraction of the nth substance listed; details: 298.15 K, 100 kPa, Liquid, Calvet calorimetry
[3] = 298.15 K; 100 kPa; Liquid; Vibrating tube method
[4] = refractive index (Na D-line) (dimensionless); details: 298.15 K; 101.33 kPa; Liquid; Standard Abbe refractometry

CCCCC(=O)OC [methyl pentanoate] + CCCCCCCC
Details | excess molar enthalpy [kcal/mol] | mass density [kg/m3]
[1], x2 = 0 | – | 884.84 ± 1
[1], x2 = 0.0514 | – | 872.35 ± 1
[1], x2 = 0.1005 | – | 860.71 ± 1
[1], x2 = 0.161 | – | 846.85 ± 1
[1], x2 = 0.2134 | – | 835.46 ± 1
[1], x2 = 0.2601 | – | 825.47 ± 1
[1], x2 = 0.3084 | – | 815.53 ± 1
[1], x2 = 0.3625 | – | 804.47 ± 1
[1], x2 = 0.4427 | – | 788.93 ± 1
[1], x2 = 0.4558 | – | 786.45 ± 1
[1], x2 = 0.5104 | – | 776.34 ± 1
[1], x2 = 0.5504 | – | 769.1 ± 1
[1], x2 = 0.6116 | – | 758.45 ± 1
[1], x2 = 0.6541 | – | 751.22 ± 1
[1], x2 = 0.7081 | – | 742.25 ± 1
[1], x2 = 0.7535 | – | 734.86 ± 1
[1], x2 = 0.8013 | – | 727.38 ± 1
[1], x2 = 0.8518 | – | 719.71 ± 1
[1], x2 = 0.9059 | – | 711.73 ± 1
[1], x2 = 0.9521 | – | 705.03 ± 1
[2], x2 = 0.0427 | 0.0387 ± 0.000956 | –
[2], x2 = 0.0951 | 0.0805 ± 0.00191 | –
[2], x2 = 0.1523 | 0.122 ± 0.00263 | –
[2], x2 = 0.2098 | 0.158 ± 0.00335 | –
[2], x2 = 0.2677 | 0.187 ± 0.00406 | –
[2], x2 = 0.3234 | 0.211 ± 0.00454 | –
[2], x2 = 0.377 | 0.228 ± 0.00502 | –
[2], x2 = 0.4266 | 0.24 ± 0.00526 | –
[2], x2 = 0.4619 | 0.249 ± 0.00526 | –
[2], x2 = 0.4695 | 0.249 ± 0.00526 | –
[2], x2 = 0.5113 | 0.252 ± 0.0055 | –
[2], x2 = 0.5126 | 0.25 ± 0.0055 | –
[2], x2 = 0.5411 | 0.249 ± 0.00526 | –
[2], x2 = 0.5701 | 0.248 ± 0.00526 | –
[2], x2 = 0.6364 | 0.236 ± 0.00502 | –
[2], x2 = 0.709 | 0.212 ± 0.00454 | –
[2], x2 = 0.7745 | 0.181 ± 0.00382 | –
[2], x2 = 0.8541 | 0.131 ± 0.00287 | –
[2], x2 = 0.9325 | 0.0547 ± 0.0012 | –

CCCCC(=O)OC [methyl pentanoate] + COC(C)=O
Details | excess molar enthalpy [kcal/mol] | mass density [kg/m3]
[1], x1 = 0.0496 | – | 922.92 ± 1
[1], x1 = 0.1001 | – | 919.44 ± 1
[1], x1 = 0.1536 | – | 916.04 ± 1
[1], x1 = 0.2027 | – | 913.18 ± 1
[1], x1 = 0.2511 | – | 910.53 ± 1
[1], x1 = 0.3522 | – | 905.55 ± 1
[1], x1 = 0.4013 | – | 903.35 ± 1
[1], x1 = 0.4497 | – | 901.35 ± 1
[1], x1 = 0.4935 | – | 899.62 ± 1
[1], x1 = 0.5444 | – | 897.75 ± 1
[1], x1 = 0.5935 | – | 896.01 ± 1
[1], x1 = 0.6563 | – | 893.98 ± 1
[1], x1 = 0.7383 | – | 891.47 ± 1
[1], x1 = 0.7902 | – | 890.02 ± 1
[1], x1 = 0.843 | – | 888.62 ± 1
[1], x1 = 0.8918 | – | 887.4 ± 1
[1], x1 = 0.9372 | – | 886.3 ± 1
[1], x1 = 1 | – | 884.84 ± 1
[2], x1 = 0.0539 | 0.012 ± 0.000478 | –
[2], x1 = 0.113 | 0.0229 ± 0.000478 | –
[2], x1 = 0.1716 | 0.0323 ± 0.000717 | –
[2], x1 = 0.2347 | 0.0413 ± 0.000956 | –
[2], x1 = 0.2915 | 0.0473 ± 0.0012 | –
[2], x1 = 0.344 | 0.0521 ± 0.0012 | –
[2], x1 = 0.3954 | 0.0552 ± 0.0012 | –
[2], x1 = 0.4441 | 0.0571 ± 0.0012 | –
[2], x1 = 0.5055 | 0.0569 ± 0.0012 | –
[2], x1 = 0.5754 | 0.0545 ± 0.0012 | –
[2], x1 = 0.6517 | 0.0507 ± 0.0012 | –
[2], x1 = 0.7339 | 0.0425 ± 0.000956 | –
[2], x1 = 0.8188 | 0.0301 ± 0.000717 | –
[2], x1 = 0.9036 | 0.0179 ± 0.000478 | –

CCCCCCCC [octane]
Details | mass density [kg/m3] | refractive index
[3] | 698.58 ± 1 | –
[4] | – | 1.3952 ± 0.0005

CCCCCCCC [octane] + CCCC(=O)OC
Details | mass density [kg/m3]
[1], x1 = 1 | 698.58 ± 1

CCCCCCCC [octane] + CCCCC(=O)OC
Details | mass density [kg/m3]
[1], x1 = 1 | 698.58 ± 1

CCCCCCCC [octane] + COC(C)=O
Details | mass density [kg/m3]
[1], x1 = 1 | 698.58 ± 1
